Laboratory results taken from publication PMC2990348 (Journal of medicinal chemistry, 2010).

Test system: poliovirus
Type: cell-based

Row | SMILES | Frequency of viral mutagenesis compared to ribavirin
1 | Cc1ncnc2c1ncn2[C@@H]1O[C@H](CO)[C@@H](O)[C@H]1O [Compound 2, 6-methyl-9-β-D-ribofuranosylpurine, reference compound] | neither 6 nor 2 increased the frequency of viral mutagenesis
2 | Cc1ncnc2c1ccn2[C@@H]1O[C@H](CO)[C@@H](O)[C@H]1O [Compound 6, 4-Methyl-7-β-D-ribofuranosylpyrrolo[2,3-d]pyrimidine] | neither 6 nor 2 increased the frequency of viral mutagenesis
